Experimental data taken from US20220323445A1, “REDUCING IMMUNOGENICITY TO PEGLOTICASE” (Horizon Therapeutics Ireland DAC, priority 2020, published 2022).

Test system: serum uric acid (sUA)
Test: Serum uric acid (sUA) levels and sUA responders, open-label study of pegloticase with MTX (NCT03635957)
Type: in vivo, human
Conditions: mITT
Description: The primary objective is to estimate the response rate during Month 6 (Weeks 20, 22, and 24), as measured by the sustained normalization of serum uric acid (SUA) to <6 mg/dL for at least 80% of the time during Month 6 in subjects receiving KXX with MTX.
The primary efficacy outcome endpoint is the sustained normalization of SUA to <6 mg/dL for at least 80% of the time during month 6 (weeks 20, 22, and 24) in subjects receiving KXX with MTX. This is slightly below the urate solubility threshold and this threshold has been the accepted standard for nearly all modern gout trials. Participants who achieve this endpoint were classified as “responders.” Serum uric acid (SUA) responders may also be defined as participants achieving and maintaining SUA <6 mg/dL for at least 80% of the time during Month 6 (Weeks 20, 22, and 24).
Blood samples may be collected prior to each pegloticase infusion for measurement of SUA levels using the Beckman Coulter AU System Uric Acid procedure. Participants were declared “non-responders” if there were SUA measures >6 mg/dL at 2 consecutive study visits beginning with the week 2 visit. […] If the SUA goal is not maintained before or at the 12-week mark, it was assumed that the participant had developed clinically relevant anti-pegloticase antibody and they received no further infusions. This assumption and subsequent discontinuation of pegloticase was consistent with the protocol of large phase III randomized controlled trials and the product label. A formal stopping rule was 2 occasions of SUA levels of greater than 6 mg/dL.
Clinical Chemistry—Blood samples were collected prior to each pegloticase infusion for measurement of SUA levels (primary efficacy parameter) using the Beckman Coulter AU System Uric Acid procedure. In this procedure uric acid is converted to hydrogen peroxide. Hydrogen peroxide reacts with reagent to produce a chromophore which is read bichromatically at 660/800 nm. The amount of dye formed is proportional to the uric acid concentration in the sample.
Serum samples for measurement of SUA levels were collected at the Screening Visit, the Week −4 Visit (prior to the first dose of MTX), and the Week −2 Visit during the MTX Run-in Period; within 48 hours prior to each pegloticase infusion and after the end of each pegloticase infusion prior to discharge from the site during the Pegloticase+IMM Period; at the non-infusion Week 52/End of Study/Early Termination Visits and at the Post Treatment 3 and 6 Month Follow-up Visits. Additional serum samples for SUA levels were collected at optional non-infusion (Frequent Sampling) Visits at Weeks 1 and 7. […] Subjects with SUA level >6 mg/dL at 2 consecutive visits beginning at Week 2 visit discontinued treatment, completed the End of Pegloticase Infusion Visit procedures within 2 weeks and continued the subject visits according to the protocol (without treatment).
Efficacy analyses were performed using the modified intention-to-treat (mITT) population, defined as all enrolled subjects who received ≥1 dose of pegloticase. The proportion of Month 6 responders was summarized, along with a 95% confidence interval for the proportion. The proportion of Month 3 and overall (Months 3 and 6 combined) responders was analyzed similarly.
A subject was declared a non-responder if the subject had SUA level >6 mg/dL at 2 consecutive study visits beginning with the Week 2 Visit. In addition, a subject who withdraws from study treatment for any reason after the first dose of pegloticase in the KXX+MTX Period and prior to Month 6 (for the primary endpoint) or Month 3 (for the secondary endpoint) was considered a non-responder if SUA values were not collected at the planned time points.
Patients were administered oral MTX (15 mg/week) and folate (1 mg/day) 4 weeks prior to the first pegloticase infusion (Day 1) and throughout the pegloticase treatment period. […]

[1] = Day 1 - Pre-Infusion (after MTX Run-in)

## CN(Cc1cnc2nc(N)nc(N)c2n1)c1ccc(C(=O)N[C@@H](CCC(=O)O)C(=O)O)cc1 [MTX, methotrexate]
[1]
  sUA Change from Methotrexate Baseline, Mean (SD): 0.25 (1.283) mg/dL
  sUA Change from Methotrexate Baseline, Median: -0.25 mg/dL
  sUA Observed, Median: 9.00 mg/dL
  sUA ≤ 6 mg/dL, n (%): 1 (7.1%) n (%)
Week -2 (MTX Run-in Period)
  sUA Change from Methotrexate Baseline, Mean (SD): 0.54 (0.839) mg/dL
  sUA Change from Methotrexate Baseline, Median: 0.50 mg/dL
  sUA Observed, Median: 9.30 mg/dL
  sUA ≤ 6 mg/dL, n (%): 1 (7.1%) n (%)
